Patent publication US20230149493A1, “COMPOSITIONS AND METHODS FOR TREATING COVID-19 AND SYMPTOMS THEREOF” (YUVA BIOSCIENCES, INC., priority 2021, published 2023)

System: peripheral blood mononuclear cells (PBMCs)
Assay: XF substrate oxidation stress test (Seahorse XFp, oxygen consumption rate)
Assay type: cell-based, human
Conditions: for basal respiration after blocking / maximal respiration after blocking: PBMCs of patients with COVID-19, BPTES 3 μM, etomoxir 4 μM, UK5099 2 μM
Method: Blood samples were obtained from the study participants. PBMCs were separated and plated on XFp eight-well polystyrene plates designed for the Seahorse XFp analyzer (Agilent Technologies, Santa Clara, Calif.) within 2 h. The Seahorse XFp analyzer (Agilent Technologies) was used to measure basal, ATP-linked, and maximal oxygen consumption rate (OCR); reserve capacity; and extracellular acidification rate (ECAR).
OCR, a measurement of mitochondrial respiration, and ECAR, which correlates to the number of protons released from the cell with potential contribution from glycolysis and the Krebs cycle, were measured in the presence of specific mitochondrial activators and inhibitors. Oligomycin (ATP synthase blocker) was used to measure ATP turnover and to determine proton leak; the mitochondrial uncoupler carbonyl cyanide 4-[trifluoromethoxy] phenylhydrazone (FCCP) was used to measure maximum respiratory function (maximal OCR).
Reserve capacity was calculated as maximal OCR minus the basal respiration.
For a measurement of basal respiration, three measurements were taken before injecting ATP synthase inhibitor oligomycin at 0.75 μM (final concentration). FCCP was then injected at 0.75 μM. Finally, a mixture of rotenone and antimycin A (1 μM) was injected. Mitochondrial basal respiration, proton leak, reserve capacity, and maximal respiration were measured after correcting for nonmitochondrial respiration.
OCR and ECAR rates were normalized to cell count for PBMCs.

| SMILES | maximal respiration after blocking the glucose pathway (PBMCs of healthy controls (HC), before blocking=37±25) | basal respiration after blocking the glucose pathway (PBMCs of healthy controls (HC), before blocking=80±33) | basal respiration after blocking | maximal respiration after blocking | basal respiration after blocking the glucose pathway (PBMCs of patients with chest infection, before blocking=200±35) | maximal respiration after blocking the glucose pathway (PBMCs of patients with chest infection, before blocking=589±16) |
| --- | --- | --- | --- | --- | --- | --- |
| N#C/C(=C\c1cn(-c2ccccc2)c2ccccc12)C(=O)O [UK5099] | 34±5 | 52±28 | 128±5 | 254±24 | 195±33 | 558±19 |
| CCOC(=O)[C@@]1(CCCCCCOc2ccc(Cl)cc2)CO1 [etomoxir] | – | – | 128±2 | 255±16 | – | – |
